Experimental data: PubChem BioAssay (NCI)
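Grown in 96-well plates, cells were treated for 48 hours with each compound at five concentrations. Insufficient inhibition: endpoint recorded as highest concentration tested. The concentration for full growth arrest is given as TGI.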

What was measured:
Experiment in all cases: inhibition of tumour cell growth, NCI panel, 48 h
TK-10 renal = test system: TK-10 renal
COLO 205 colon = test system: COLO 205 colon
SK-OV-3 ovarian = test system: SK-OV-3 ovarian
SNB-75 CNS = test system: SNB-75 CNS
SNB-19 CNS = test system: SNB-19 CNS
M14 melanoma = test system: M14 melanoma
OVCAR-3 ovarian = test system: OVCAR-3 ovarian
BT-549 breast = test system: BT-549 breast
A549 NSCLC = test system: A549 NSCLC
DU-145 prostate = test system: DU-145 prostate
SR leukemia = test system: SR leukemia
RPMI-8226 leukemia = test system: RPMI-8226 leukemia
HL-60(TB) leukemia = test system: HL-60(TB) leukemia
SF-295 CNS = test system: SF-295 CNS
SK-MEL-2 melanoma = test system: SK-MEL-2 melanoma
786-0 renal = test system: 786-0 renal
MDA-MB-231 breast = test system: MDA-MB-231 breast
HOP-62 NSCLC = test system: HOP-62 NSCLC
HS 578T breast = test system: HS 578T breast
HT29 colon = test system: HT29 colon
HCT-116 colon = test system: HCT-116 colon
KM12 colon = test system: KM12 colon
NCI/ADR-RES ovarian = test system: NCI/ADR-RES ovarian
SN12C renal = test system: SN12C renal
ACHN renal = test system: ACHN renal
HCT-15 colon = test system: HCT-15 colon
HCC-2998 colon = test system: HCC-2998 colon
OVCAR-4 ovarian = test system: OVCAR-4 ovarian
EKVX NSCLC = test system: EKVX NSCLC
HOP-92 NSCLC = test system: HOP-92 NSCLC
NCI-H522 lung = test system: NCI-H522 lung
UO-31 renal = test system: UO-31 renal
CAKI-1 renal = test system: CAKI-1 renal
UACC-62 melanoma = test system: UACC-62 melanoma
NCI-H23 lung = test system: NCI-H23 lung
NCI-H460 lung = test system: NCI-H460 lung
U251 CNS = test system: U251 CNS
SK-MEL-5 melanoma = test system: SK-MEL-5 melanoma
IGROV1 ovarian = test system: IGROV1 ovarian
SK-MEL-28 melanoma = test system: SK-MEL-28 melanoma
MALME-3M melanoma = test system: MALME-3M melanoma
SF-539 CNS = test system: SF-539 CNS
MCF7 breast = test system: MCF7 breast
MDA-MB-435 = test system: MDA-MB-435
SF-268 CNS = test system: SF-268 CNS
MDA-N = test system: MDA-N
OVCAR-5 ovarian = test system: OVCAR-5 ovarian
NCI-H226 lung = test system: NCI-H226 lung
CCRF-CEM leukemia = test system: CCRF-CEM leukemia
OVCAR-8 ovarian = test system: OVCAR-8 ovarian
UACC-257 melanoma = test system: UACC-257 melanoma
SW-620 colon = test system: SW-620 colon
LOX IMVI melanoma = test system: LOX IMVI melanoma
PC-3 prostate = test system: PC-3 prostate
MOLT-4 leukemia = test system: MOLT-4 leukemia
T-47D breast = test system: T-47D breast
K-562 leukemia = test system: K-562 leukemia
A498 renal = test system: A498 renal

CC(=O)C(C)C(=O)N1C(=O)N(C)C2(C)N(C)C(=O)NC12C (centres undefined)
TGI (TK-10 renal): > 100 µM | TGI (COLO 205 colon): > 100 µM | TGI (SK-OV-3 ovarian): > 100 µM | TGI (SNB-75 CNS): > 100 µM | TGI (SNB-19 CNS): > 100 µM | TGI (M14 melanoma): > 100 µM | TGI (OVCAR-3 ovarian): > 100 µM | TGI (BT-549 breast): > 100 µM | TGI (A549 NSCLC): > 100 µM | TGI (DU-145 prostate): > 100 µM | TGI (SR leukemia): > 100 µM | TGI (RPMI-8226 leukemia): > 100 µM | TGI (HL-60(TB) leukemia): > 100 µM | TGI (SF-295 CNS): > 100 µM | TGI (SK-MEL-2 melanoma): > 100 µM | TGI (786-0 renal): > 100 µM | TGI (MDA-MB-231 breast): > 100 µM | TGI (HOP-62 NSCLC): > 100 µM | TGI (HS 578T breast): > 100 µM | TGI (HT29 colon): > 100 µM | TGI (HCT-116 colon): > 100 µM | TGI (KM12 colon): > 100 µM | TGI (NCI/ADR-RES ovarian): > 100 µM | TGI (SN12C renal): > 100 µM | TGI (ACHN renal): > 100 µM | TGI (HCT-15 colon): > 100 µM | TGI (HCC-2998 colon): > 100 µM | TGI (OVCAR-4 ovarian): > 100 µM | TGI (EKVX NSCLC): > 100 µM | TGI (HOP-92 NSCLC): > 100 µM | TGI (NCI-H522 lung): > 100 µM | TGI (UO-31 renal): > 100 µM | TGI (CAKI-1 renal): > 100 µM | TGI (UACC-62 melanoma): > 100 µM | TGI (NCI-H23 lung): > 100 µM | TGI (NCI-H460 lung): > 100 µM | TGI (U251 CNS): > 100 µM | TGI (SK-MEL-5 melanoma): > 100 µM | TGI (IGROV1 ovarian): > 100 µM | TGI (SK-MEL-28 melanoma): > 100 µM | TGI (MALME-3M melanoma): > 100 µM | TGI (SF-539 CNS): > 100 µM | TGI (MCF7 breast): > 100 µM | TGI (MDA-MB-435): > 100 µM | TGI (SF-268 CNS): > 100 µM | TGI (MDA-N): > 100 µM | TGI (OVCAR-5 ovarian): > 100 µM

O=C(N=Nc1ccc(Cl)cc1Cl)NNc1ccc(Cl)cc1Cl
TGI (TK-10 renal): 55.5 µM | TGI (NCI-H226 lung): 48.2 µM | TGI (SNB-75 CNS): > 100 µM | TGI (SNB-19 CNS): > 100 µM | TGI (CCRF-CEM leukemia): 59.6 µM | TGI (OVCAR-8 ovarian): 37.6 µM | TGI (OVCAR-3 ovarian): 33.6 µM | TGI (BT-549 breast): 39.7 µM | TGI (UACC-257 melanoma): 43.1 µM | TGI (SW-620 colon): 45.8 µM | TGI (A549 NSCLC): 46.7 µM | TGI (DU-145 prostate): 33.3 µM | TGI (SR leukemia): 78.3 µM | TGI (LOX IMVI melanoma): 30.4 µM | TGI (RPMI-8226 leukemia): 61.9 µM | TGI (HL-60(TB) leukemia): 49.8 µM | TGI (PC-3 prostate): 34.8 µM | TGI (MOLT-4 leukemia): 50.5 µM | TGI (SK-MEL-2 melanoma): 27 µM | TGI (786-0 renal): 32.6 µM | TGI (MDA-MB-231 breast): 57.8 µM | TGI (HOP-62 NSCLC): 18.6 µM | TGI (HT29 colon): 75.3 µM | TGI (HCT-116 colon): 28.7 µM | TGI (T-47D breast): 77.3 µM | TGI (SN12C renal): 37.4 µM | TGI (ACHN renal): 42.5 µM | TGI (HCT-15 colon): 46.8 µM | TGI (K-562 leukemia): 72.6 µM | TGI (A498 renal): 33.1 µM | TGI (HCC-2998 colon): 23.9 µM | TGI (OVCAR-4 ovarian): 38 µM | TGI (NCI-H522 lung): 41.9 µM | TGI (UO-31 renal): 37.5 µM | TGI (CAKI-1 renal): 52.9 µM | TGI (UACC-62 melanoma): 29 µM | TGI (NCI-H23 lung): 53 µM | TGI (NCI-H460 lung): 33.4 µM | TGI (U251 CNS): 36.2 µM | TGI (SK-MEL-5 melanoma): 29.2 µM | TGI (IGROV1 ovarian): 61.4 µM | TGI (SK-MEL-28 melanoma): 53.9 µM | TGI (MALME-3M melanoma): 36.6 µM | TGI (MDA-MB-435): 51.3 µM | TGI (SF-268 CNS): 97.5 µM | TGI (MDA-N): 35.1 µM | TGI (OVCAR-5 ovarian): 44 µM
